# Patent US9494524B2, “Assay for analytes based on aggregation” (priority 2010, dated 2016)
# Where two headings read alike, the source gives them in different places.
# Assays:
# [1] = tested on: Phospholipase A2 from Naja mossambica mossambica; assay type: biochemical; settings: in the presence of PLA2 and EDTA, room temperature (FIG. 3A)
# Method: (§1) Methodology: Mixed solutions of 20 nm JR2EC-functionalised gold nanoparticles and 100 nm JR2KC2-loaded liposomes were prepared in accordance with Example 1. Absorption spectra were measured for the solutions under various solution conditions, as discussed below.
# (§2) Methodology: JR2KC2 loaded liposomes, carboxyfluorescein (CF)-loaded liposomes and JR2EC-functionalised gold nanoparticles were prepared as described in Example 1. A mixture of PLA2 and chlorpromazine was added to the suspensions of liposomes. The assay response was recorded spectroscopically (in the UV-visible range) after incubating various concentrations of chlorpromazine with PLA2 (7 nM), functionalized gold nanoparticles (0.1 nM) and liposomes (1.4 nM) for 10 minutes at 37° C. For JR2KC2-loaded liposomes, the assay response was measured spectroscopically (in the UV-visible range) by recording spectra in the range 400-800 nm with 2 minute intervals using a Perkin Elmer Lambda 25 Spectrophotometer, and then extracting Δλmax.
# (§3) This value was obtained by fitting the data to the monophasic Hill equation: […]
# [2] = tested on: T1, Phospholipase A2 from Naja mossambica mossambica; assay type: biochemical
# T1 construct: IC50; other: CF-loaded liposomes, PLA2 7 nM, 37° C; other: PLA2 7 nM, gold nanoparticles 0.1 nM, liposomes 1.4 nM, 10 minutes at 37° C., Hill fit of Δλmax; lag time
# Method: as §1, §2, §3
# [3] = target: T1, Phospholipase A2 from Naja mossambica mossambica; experiment: traditional carboxyfluorescein (CF)-based fluorescence assay with CF-loaded liposomes; assay type: biochemical; settings: PLA2 7 nM, 37° C.
# Method: Carboxyfluorescein-loaded liposomes were prepared similarly, except that the rehydration solution was 50 mM CF, 20 mM phosphate, adjusted to pH 7 with NaOH. The untrapped dye was removed by filtration on a Sephadex G-25 column with PBS as eluent. The total lipid concentration in all samples was determined using the Stewart assay.^21
# Methodology: Liposomes containing 50 mM of carboxyfluorescein were prepared as described in Example 1. The final lipid concentration in the sample was 30 μg/ml. The liposomes were incubated with solutions of PLA2 at a variety of concentrations for 30 minutes. Experiments were performed on a Perkin Elmer fluorimeter with an excitation wavelength of 490 nm and an emission wavelength of 520 nm. […]
# as §2, with “A mixture of PLA2 and chlorpromazine was added to the suspensions of liposomes.” left out
# PLA2 = settings: literature values; read-out: IC50 previously reported; cited from earlier work
Compound,effect on PLA2-induced nanoparticle aggregation [1],"lag time ([2]; 10 μM inhibitor, 7 nM PLA2, about 5 minutes without the inhibitor)","concentration of active non-inhibited PLA2 relative to actual PLA2 concentration ([2]; 10 μM inhibitor, read from lag time (FIG. 12b))","IC50 ([2]; PLA2 7 nM, gold nanoparticles 0.1 nM, liposomes 1.4 nM, 10 minutes at 37° C., Hill fit of Δλmax) [µM]",IC50 [3] [µM],IC50 (PLA2) [µM]
"O=C(O)CN(CCN(CC(=O)O)CC(=O)O)CC(=O)O [EDTA, ethylenediaminetetraacetic acid]",prevented aggregation,,,,,
CN(C)CCCN1c2ccccc2Sc2ccc(Cl)cc21 [chlorpromazine],,approximately 15 minutes,about half,6.5,10,10 to 100
